Values quoted from earlier work as cited in patent US7932083B2, “DNA participating in hydroxylation of macrolide compound” (priority 2003, dated 2011).

Conditions: statement of prior art (WO02/060890)

## CCC(O)C(C)C1OC1CC(C)(O)/C=C/C=C(\C)C1OC(=O)CC(O)CCC(C)(O)C(OC(C)=O)/C=C/C1C (stereo not shown) [11107D]
  antitumor activity: excellent antitumor activity
